# Read-outs that look alike come from different tables or passages of the source.
# Tests used:
# Assay in all cases: MIC determination (agar/broth)
# Type in all cases: cell-based
# E. coli ESS = details: Escherichia coli, AGAR
# E. coli JT 4 = details: Escherichia coli, JT4, AGAR
# E. coli JT 425 = details: Escherichia coli, JT425, AGAR
# E. coli NCTC 10418 = test system: E. coli NCTC 10418
# [1] = test system: Ps. aeruginosa NCTC 10662; details: Pseudomonas aeruginosa
# Ps. aeruginosa Dalgleish = details: Pseudomonas aeruginosa; AGAR; Ps. aeruginosa Dalgleish 10^-2
# S. marcescens US 32 = details: Serratia marcescens, US32, AGAR
# K. aerogenes A = details: Klebsiella aerogenes
# E. cloacae N1 = details: Enterobacter cloacae, AGAR
# P. mirabilis C 977 = details: Proteus mirabilis, C977, AGAR
# P. mirabilis 889 = details: Proteus mirabilis, AGAR
# P. morganii = details: Morganella morganii, AGAR
# P. rettgeri = details: Providencia rettgeri, AGAR
# B. subtilis = details: Bacillus subtilis, AGAR
# S. aureus Oxford = test system: S. aureus Oxford
# S. aureus Russell = test system: S. aureus Russell
# N. catarrhalis 1502 = details: AGAR
# S. faecalis I = details: Enterococcus faecalis, AGAR
# S. pyogenes CN 10 = details: Streptococcus pyogenes, CN10, AGAR
# [2] = Staphylococcus aureus, AGAR, read-out: MIC
smiles,measurement,setting,value
"CCN1CCN(C(=O)NC(C(=O)N[C@@H]2C(=O)N3[C@@H]2SC(C)(C)[C@@H]3C(=O)O)c2csc(N)n2)C(=O)C1=O (mixture of isomers) [Example 1, 6-[DL-a-(4-Ethyl-2,3-dioxopiperazin-l-carbonylamino)-2-aminothiazol-4-acetamido]penicillanic acid]",MIC,E. coli ESS,< 0.02 µg/mL
same,MIC,E. coli JT 4,> 100 µg/mL
same,MIC,E. coli JT 425,25 µg/mL
same,MIC,E. coli NCTC 10418; BROTH,1.0 µg/mL
same,MIC,"E. coli NCTC 10418; Escherichia coli, NCTC10418, AGAR, read-out: MIC",1 µg/mL
same,MIC,"[1]; NCTC10662, AGAR, Ps. aeruginosa NCTC 10662",5 µg/mL
same,MIC,"[1]; NCTC10662, AGAR, Ps. aeruginosa NCTC 10662 10^-2",2.5 µg/mL
same,MIC,"[1]; NCTC10662, BROTH, Ps. aeruginosa NCTC 10662",10 µg/mL
same,MIC,"[1]; NCTC10662, BROTH, Ps. aeruginosa NCTC 10662 10^-2",25 µg/mL
same,MIC,Ps. aeruginosa Dalgleish,> 100 µg/mL
same,MIC,S. marcescens US 32,2.5 µg/mL
same,MIC,K. aerogenes A; AGAR,10 µg/mL
same,MIC,K. aerogenes A; BROTH,25 µg/mL
same,MIC,E. cloacae N1,0.5 µg/mL
same,MIC,P. mirabilis C 977,0.2 µg/mL
same,MIC,P. mirabilis 889,> 100 µg/mL
same,MIC,P. morganii,0.5 µg/mL
same,MIC,P. rettgeri,2.5 µg/mL
same,MIC,B. subtilis,2.5 µg/mL
same,MIC,S. aureus Oxford; BROTH,1.0 µg/mL
same,MIC,S. aureus Oxford; [2],1 µg/mL
same,MIC,S. aureus Russell; BROTH,100 µg/mL
same,MIC,S. aureus Russell; [2],100 µg/mL
same,MIC,N. catarrhalis 1502,< 0.02 µg/mL
same,MIC,S. faecalis I,25 µg/mL
same,MIC,S. pyogenes CN 10,0.1 µg/mL
